# Test results taken from patent publication US20230279072A1, “REGULATORY T CELL EPITOPES” (EpiVax Inc., priority 2020, published 2023).
# “Also recorded” adds a separate entry of the source.
# Legend:
# [1] = test system: CD4+ effector memory T cells; test: Suppression of Tetanus Toxoid stimulated CD4+ effector T cells in PBMC; assay type: cell-based, human; set-up: CD4+ T cell activation reduced by: dose or concentration left out as unconfirmed
# Method: Previously harvested and frozen PBMC were thawed and suspended in conditioned chRPMI (3.3×10^6 cells/mL) by conventional means. Cells were stained with CFSE (Cat #: 65-0850-84, Affymetrix, Santa Clara, Calif.) and plated at 300,000 cells per well. Plates were incubated overnight (37° C. in 5% CO2). […] Previous titration experiments performed at EpiVax (EpiVax, Providence, R.I.) have established that stimulation with 0.5 μg/ml Tetanus Toxoid (TT) (Astarte Biologics, Bothell, Wash.) elicits a measurable CD4+ effector memory T cells response in PBMC drawn from healthy control donors (Rhode Island Blood Center, Providence, R.I.). Tetanus Toxoid stock (100 μg/mL) (Astarte Biologics, Bothell, Wash.) was diluted in conditioned chRPMI yielding a working concentration of 1 ug/mL. […] All plates were then incubated for six additional days. On assay day five, 100 μL of supernatant was removed from each well and replaced with freshly conditioned chRPMI.
# On assay day seven, cells were removed from incubation. Cells were labeled for live/dead discrimination, for surface markers CD127, CCR7, CD4, CD45RA, and CD25 and for intracellular FoxP3. Stained cells were further prepared for FACS analysis by conventional means. Cells were first gated to eliminate aggregates and dead cells. Live cells were gated for CD4 T cells and all subsequent analysis was done on this population. The activated Teffector population was identified as the CD4+/CD25-high/FoxP3-intermediate (CD4+/CD25^1/FoxP3int) (FIG. 8A).
# Proliferation of CD4+/CD25-high (CD4^+/CD25^hi) T cells was estimated from the dilution of the CFSE stain (Cat #: 65-0850-84, Affymetrix, Santa Clara, Calif.) and % proliferation determined by the CFSE-low (CFSEL^lo) population (FIG. 8B).
# [2] = test system: HLA-DRB1*0101, *0301, *0401, *0701, *1101, *1301 and *1501 alleles; test: In vitro HLA DRB1 binding assay, panel of seven alleles; set-up: species or system human; details: for breadth of binding to HLA DRB1 alleles: seven alleles
# Method: The six FV peptides were tested for in vitro binding to HLA-DRB1*0101, *0301, *0401, *0701, *1101, *1301 and *1501 alleles.
# [3] = test system: CD4+ T cells in PBMCs from healthy donors; test: Tetanus Toxoid Bystander Suppression Assay (TTBSA); assay type: cell-based, human; details: for inhibition of the CD4+ T memory response / T effector proliferation in the TTBSA: PBMC from three HLA-diverse donors
# [4] = test system: PBMCs; assay type: cell-based, human
# Method: For the T reg assays, PBMCs were thawed according standard procedure, labeled with carboxyfluorescein succinimidyl ester (CFSE), and rested overnight in 96 well culture plate prior to use in in vitro assays. To evaluate the dose response of FV621 on the viability, cells were incubated with FV621 for 2, 3, 5 and 7 days in culture and live cells evaluated by flow cytometry using a live-dead viability dye and by counting in a cellometer (Nexcelom) using trypan blue exclusion. […]
# To rule out the possibility that the effect of FV621 was related to toxic effects of the peptide, which might simulate a suppressive effect in vitro, we evaluated the viability of cells in culture with FV621 using two different methods. Cells were cultured in the presence of FV621 in a 96 well plate for 2, 3, 5 and 7 days after which cells were collected and stained with live-dead viability dye and analyzed by flow cytometry (data not shown) and by trypan blue exclusion and counting with a cellometer (Nexcelom). The absolute number of live cells that was counted at days 2, 3, 5 and 7 after stimulation with different doses of FV621 Tregitope was similar by flow cytometry.
# [5] = test system: panel of five common Class II HLA alleles: HLA-DRB1*0101, HLA-DRB1*0301, HLA-DRB1*0701, HLA-DRB1*1101, and HLA-DRB1*1501; test: Soluble HLA competition binding assay, panel of five alleles; set-up: species or system human
# Method: HLA Binding Assay. Binding activity was analyzed atEpiVax (Providence, R.I.). The binding assay used (Steere A C et al., (2006), J Exp Med, 2003(4):961-71) yielded an indirect measure of peptide-MHC affinity. Soluble HLA molecules were loaded onto a 96-well plate with the unlabeled experimental Tregitopes and labeled control peptide. Once the binding mixture reached steady equilibrium (at 24 hours), the HLA-Tregitope complexes were captured on an ELISA plate coated with anti-human DR antibody and detected with a Europium-linked probe for the label (PerkinElmer, Waltham, Mass.). Time-resolved fluorescence measuring bound labeled control peptide is assessed by a SpectraMax® M5 unit (Spectramax, Radnor, Pa.). Binding of experimental Tregitopes was expressed as the percent inhibition of the labeled control peptide (experimental fluorescence/control fluorescence multiplied by 100). […]
# CD4+ effector memory T cells contained within PBMC cell populations can be induced to proliferate in response to stimulation with known T cell epitopes. […] Binding of experimental Tregitopes is expressed as the percent inhibition of the labeled control peptide (experimental fluorescence/control fluorescence multiplied by 100). […]
molecule,measurement,setting,value
IHSIHFSGHVFTVRK (listed as Homo sapiens) [SEQ ID NO: 2],proliferation of CD4+ T cells and activated T effector T cells,"[1]; 5, 10, 15, and 20 ug/ml, two donors",suppressed proliferation of CD4+ T cells and activated T effector T cells in a dose dependent manner
same,CD4+ T cell activation reduced by,"[1]; Donor 096, with TT",70%
same,CD4+ T cell activation reduced by,"[1]; Donor 120, with TT",50%
G628H: FV621 with point mutation at TCR facing position G628H (glycine changed to histidine) (ILTIHFTHHSFIYGK),binding affinity to HLA DR alleles (in words),[2]; across the alleles tested,identical to FV621
same,suppressive capacity on TT-induced memory CD4 T cell proliferation relative to FV621,"[3]; point-mutated FV621 peptides, data not shown",significantly diminished suppressive capacity
CC[C@H](C)[C@H](NC(C)=O)C(=O)N[C@@H](CC(C)C)C(=O)N[C@H](C(=O)N[C@H](C(=O)N[C@@H](Cc1c[nH]cn1)C(=O)N[C@@H](Cc1ccccc1)C(=O)N[C@H](C(=O)NCC(=O)N[C@@H](Cc1c[nH]cn1)C(=O)N[C@@H](CO)C(=O)N[C@@H](Cc1ccccc1)C(=O)N[C@H](C(=O)N[C@@H](Cc1ccc(O)cc1)C(=O)NCC(=O)N[C@@H](CCCCN)C(N)=O)[C@@H](C)CC)[C@@H](C)O)[C@@H](C)CC)[C@@H](C)O [SEQ ID NO: 1],absolute number of live cells by flow cytometry,"[4]; days 2, 3, 5 and 7, different doses",similar
same,decreased viability by trypan blue exclusion,[4]; highest dose,10-15%
CC[C@H](C)[C@H](NC(=O)[C@H](CC(N)=O)NC(=O)[C@H](CO)NC(=O)[C@H](CCC(=O)O)NC(C)=O)C(=O)N[C@@H](CCSC)C(=O)N[C@@H](CO)C(=O)N[C@H](C(=O)N[C@H](C(=O)N[C@@H](CC(N)=O)C(=O)NCC(=O)N[C@@H](Cc1ccc(O)cc1)C(=O)N[C@H](C(=O)N1CCC[C@H]1C(=O)N[C@@H](CCC(=O)O)C(=O)N[C@@H](CO)C(N)=O)C(C)C)[C@@H](C)CC)[C@@H](C)O [SEQ ID NO: 5],breadth of binding to HLA DRB1 alleles,[2]; listed as FV582,somewhat more restricted in the breadth of binding; also recorded: more limited binding to HLA DR
same,inhibition of the CD4+ T memory response / T effector proliferation in the TTBSA,[3],did not inhibit
CC(=O)N[C@@H](Cc1ccccc1)C(=O)N[C@@H](C)C(=O)N[C@H](C(=O)N[C@@H](Cc1ccccc1)C(=O)N[C@@H](CC(=O)O)C(=O)N[C@@H](CCC(=O)O)C(=O)N[C@@H](CC(N)=O)C(=O)N[C@@H](CCCCN)C(=O)N[C@@H](CO)C(=O)N[C@@H](Cc1c[nH]c2ccccc12)C(=O)N[C@@H](Cc1ccc(O)cc1)C(=O)N[C@@H](CC(C)C)C(=O)N[C@@H](CCC(=O)O)C(=O)N[C@@H](CC(=O)O)C(=O)N[C@@H](CC(N)=O)C(N)=O)C(C)C [SEQ ID NO: 4],breadth of binding to HLA DRB1 alleles,[2]; listed as FV548,somewhat more restricted in the breadth of binding; also recorded: more limited binding to HLA DR
same,HLA binding profile,[5],highly-restricted HLA binding profiles
same,inhibition of the CD4+ T memory response / T effector proliferation in the TTBSA,[3],did not inhibit
CC[C@H](C)[C@H](NC(=O)[C@H](CC(C)C)NC(=O)[C@H](CC(C)C)NC(=O)[C@@H]1CCCN1C(=O)CNC(=O)[C@@H](NC(=O)[C@H](CC(C)C)NC(=O)CNC(=O)[C@H](CO)NC(=O)[C@H](Cc1c[nH]cn1)NC(=O)[C@@H](NC(=O)[C@H](CC(=O)O)NC(=O)[C@H](CCCCN)NC(=O)[C@H](CCC(=O)O)NC(C)=O)[C@@H](C)CC)[C@@H](C)CC)C(N)=O [SEQ ID NO: 6],breadth of binding to HLA DRB1 alleles,[2]; listed as FV1737,somewhat more restricted in the breadth of binding; also recorded: more limited binding to HLA DR
same,HLA binding profile,[5],highly-restricted HLA binding profiles
same,inhibition of the CD4+ T memory response / T effector proliferation in the TTBSA,[3],did not inhibit
CC[C@H](C)[C@H](NC(=O)[C@H](C)NC(=O)[C@H](Cc1c[nH]cn1)NC(=O)[C@H](Cc1ccccc1)NC(=O)[C@H](CCC(=O)O)NC(=O)[C@H](Cc1c[nH]cn1)NC(=O)[C@H](CO)NC(C)=O)C(=O)N[C@@H](CC(N)=O)C(=O)NCC(=O)N[C@@H](CCSC)C(=O)N[C@H](C(=O)N[C@@H](Cc1ccc(O)cc1)C(=O)N[C@@H](CO)C(=O)N[C@@H](CC(C)C)C(=O)N1CCC[C@H]1C(N)=O)[C@@H](C)CC [SEQ ID NO: 7],breadth of binding to HLA DRB1 alleles,[2],bind to multiple HLA DRB1 alleles
same,inhibition of the CD4+ T memory response / T effector proliferation in the TTBSA,[3],did not inhibit
